Test results from patent US20060079453A1, “Hla binding peptides and their uses” (priority 2002, published 2006).
Read-outs that look alike come from different tables or passages of the source. No end group written: not given here.

Legend:
Assay in all cases: biochemical
Assay type in all cases: binding
[1] = target: HLA-DR DRB1*0701 (DR7) (Homo sapiens, UniProt P01903+P01911, A100R/A102G/A103Q/D57E/D86V/E43K/F76Y/K127E/L162R/M171V/P40G/Q125H/Q99D/R33Q/R42Y/R54Q/S133A/S66F/T210M/V115G/Y107V/Y59L/Y89S)
[2] = target: HLA-DR DRB1*0401 (DR4) (Homo sapiens, UniProt P01903+P01911, A100K/A169T/F76Y/I96L/K127E/L162R/M171V/N62H/P40V/Q125Y/R42H/S133A/S149N/S66Y/V115G/V209L/W38E)
[3] = target: HLA-DR DRB1*0101 (DR1) (Homo sapiens, UniProt P01903+P01911, A100R/D57E/F55L/F60I/F76Y/I96L/L162R/M171V/P40L/Q125E/R42F/V115G/Y59C)
[4] = target: HLA-DR DRB1*1501 (DR15) (Homo sapiens, UniProt P01903+P01911)
[5] = target: HLA-DR DRB5*0101 (DR51) (Homo sapiens, UniProt P01903+Q30154)
[6] = target: HLA-DR DRB4*0101 (DR53) (Homo sapiens, UniProt P01903+P13762, G164S)
[7] = target: HLA-DR DRB1*1302 (DR13) (Homo sapiens, UniProt P01903+P01911, A100E/A169T/K41T/L162R/M171V/P40S/Q125H/Q178H/Q39Y/Q99D/R42S/S66N/T262R/V115G/W38E/Y61H); details: DRBI *1302
Chain of HLA-DR DRB1*1302 (DR13) (P01903 26-254 limits assumed, other chains not shown): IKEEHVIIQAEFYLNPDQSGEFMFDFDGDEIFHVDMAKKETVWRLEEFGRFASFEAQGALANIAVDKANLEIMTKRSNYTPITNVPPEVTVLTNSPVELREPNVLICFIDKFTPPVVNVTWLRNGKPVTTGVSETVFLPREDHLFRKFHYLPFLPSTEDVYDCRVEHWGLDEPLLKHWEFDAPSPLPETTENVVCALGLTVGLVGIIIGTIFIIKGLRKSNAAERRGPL

YAR(15A)RQTTLKA was tested, and the IC50 ([1]; read-out: DRB1 *0701) was 8330 nM, the IC50 ([2]; read-out: DRB1 *0401) was 0.35 nM and the IC50 ([3]; read-out: DRB1 *0101) was 1.6 nM.

Work on AAAKAAAAAAAFA yielded an IC50 ([3]; DRB1 *0101) of at least 50000 nM.

Molecule FFKNIVTFFKNIVT has an IC50 ([1]; DRB1 *0701) of over 12500 nM, an IC50 ([2]; DRB1 *0401) of over 667 nM and an IC50 ([3]; DRB1 *0101) of at least 50000 nM.

In the case of PATYGIIVPVLTSLF, the IC50 ([2]; DRB1 *0401) is reported as 15 nM, the IC50 ([4]; DRBI *1501) is reported as 2560 nM and the IC50 ([3]; DRB1 *0101) is reported as 1.03 nM. For the same molecule, the IC50 ([5]; DRB5 *0101) was 52 nM.

NPVVHFFKNIVT was tested, and the IC50 ([4]; DRBI *1501) was 23 nM and the IC50 ([5]; DRB5 *0101) was 10000 nM.

With AAKIFIGFFIDGA the IC50 ([2]; DRB1 *0401) was 200 nM.

Molecule HFFKNIVTPRTPPY has an IC50 ([4]; DRBI *1501) of 460 nM and an IC50 ([5]; DRB5 *0101) of 377 nM.

PQPFRPQQPYPK was tested, and the IC50 ([6]; DRB4 *0101) was 22 nM.

Work on IRNLALQTLP yielded an IC50 ([6]; DRB4 *0101) of 3 nM.

LGQQQPFPPQ gave an IC50 ([6]; DRB4 *0101) of 151 nM.

(43)AAIGFFFFKKGIA gave an IC50 ([2]; read-out: DRB1 *0401) of 258 nM.

In the case of AWVAWRNRCK, the IC50 ([1]; read-out: DRB1 *0701) is reported as over 12500 nM and the IC50 ([3]; read-out: DRB1 *0101) is reported as at least 50000 nM.

With FLGQQQPFPPQ the IC50 ([6]; DRB4 *0101) was 31 nM.

For PKYFKQGFLKGAT, the IC50 [2] was 800 nM and the IC50 [3] was at least 50000 nM.

P(X)KQNTLKLAT was tested, and the IC50 ([3]; read-out: DRB1 *0101) was 1.7 nM.

PAYEKLSAEQSPPPY was tested, and the IC50 ([2]; DRB1 *0401) was 479 nM.

AAFIFIGGGKIKA was tested, and the IC50 ([2]; DRB1 *0401) was 195 nM and the IC50 ([3]; DRB1 *0101) was at least 50000 nM.

EGDAFELTVSC was tested, and the IC50 ([2]; read-out: DRB1 *0401) was 572 nM.

YFNNFTVSFWLRVPK was tested, and the IC50 [3] was at least 50000 nM.

QFLGQQQPFPP gave an IC50 ([6]; DRB4 *0101) of 2.3 nM.

PQPFRPQQPYKQ was tested, and the IC50 ([6]; DRB4 *0101) was 35 nM.

With AAAKAAAAFAAAA the IC50 ([3]; DRB1 *0101) was at least 50000 nM.

QKQLLTNHLINTPKI showed an IC50 ([6]; read-out: DRB4 *0101) of 904 nM.

In the case of `CC(C)C[C@H](NC(=O)[C@H](CCCCN)NC(=O)[C@H](C)NC(=O)[C@@H](NC(=O)[C@H](CCCCN)NC(=O)[C@H](CCCNC(=N)N)NC(=O)[C@H](CO)NC(=O)[C@H](CC(C)C)NC(=O)[C@H](C)NC(=O)[C@H](C)NC(=O)[C@H](CCC(N)=O)NC(=O)[C@H](Cc1ccccc1)NC(=O)[C@H](CCC(=O)O)NC(=O)[C@H](CO)NC(=O)[C@@H](N)CCC(=O)O)C(C)C)C(=O)O`, the IC50 ([2]; DRB1 *0401) is reported as 579 nM.

RNGYRALMDKSLHVGTQCALTRR showed an IC50 ([2]; DRB1 *0401) of 512 nM.

For SAFLESQSMNKIGDD, the IC50 ([1]; DRB1 *0701) was 523 nM, the IC50 ([4]; DRBI *1501) was 18700 nM and the IC50 ([6]; DRB4 *0101) was 302 nM. For the same molecule, the IC50 ([3]; DRB1 *0101) was 549 nM and the IC50 ([5]; DRB5 *0101) was 243 nM.

In the case of NYELSKKAVIFTPIY [NYELSKXAVIFTPIY], the IC50 ([4]; DRBI *1501) is reported as 537 nM, the IC50 [7] is reported as 410 nM and the IC50 ([5]; DRB5 *0101) is reported as 10600 nM.

AAYAAAATAKAAA was tested, and the IC50 ([2]; read-out: DRB1 *0401) was 0.54 nM and the IC50 ([3]; read-out: DRB1 *0101) was 3.9 nM.

With QKQVQMMIMTKFMGV the IC50 ([1]; read-out: DRB1 *0701) was 3620 nM and the IC50 ([3]; read-out: DRB1 *0101) was 121 nM.

Work on (46)AAKTAAAFA yielded an IC50 ([3]; read-out: DRB1 *0101) of 5000 nM.

AFAAAKTAA(72) gave an IC50 ([3]; read-out: DRB1 *0101) of 5000 nM.

ENPVVHFFANIVTPR showed an IC50 ([4]; DRBI *1501) of 2.9 nM and an IC50 ([5]; DRB5 *0101) of 6240 nM.

For (43)AAIGGIFIFKKDA, the IC50 ([2]; read-out: DRB1 *0401) was 800 nM.

With QKQVQMMIMIKFMGV the IC50 ([4]; read-out: DRBI *1501) was 363 nM, the IC50 ([6]; read-out: DRB4 *0101) was 5.3 nM and the IC50 ([5]; read-out: DRB5 *0101) was 915 nM.

NPVVHFFKNIVTPR gave an IC50 ([4]; DRBI *1501) of 3.7 nM and an IC50 ([5]; DRB5 *0101) of 1890 nM.

PQPFRPQKPYPQ was tested, and the IC50 ([6]; DRB4 *0101) was 22 nM.

PQPFRPQQP was tested, and the IC50 ([6]; DRB4 *0101) was 19 nM.

With ACAAAKATAAAA(10)AA the IC50 ([3]; read-out: DRB1 *0101) was 5000 nM.

With (52)AAAATKAAAA the IC50 ([3]; read-out: DRB1 *0101) was 2000 nM.

YSFFPSI [YSFFPSI] was tested, and the IC50 ([3]; DRB1 *0101) was at least 50000 nM.

Work on RIVYRDNNPYGVCIM yielded an IC50 ([4]; read-out: DRBI *1501) of 821 nM, an IC50 ([6]; read-out: DRB4 *0101) of 1400 nM and an IC50 ([5]; read-out: DRB5 *0101) of 20500 nM.

Work on KKNIIALLIIPPKIH yielded an IC50 ([4]; read-out: DRBI *1501) of 32 nM and an IC50 ([6]; read-out: DRB4 *0101) of 8.2 nM.

AAAAASAAAAAAA gave an IC50 ([2]; DRB1 *0401) of 235 nM and an IC50 ([3]; DRB1 *0101) of at least 50000 nM.

KYVKQNTLKLAT was tested, and the IC50 [2] was 6.2 nM and the IC50 [3] was 9.9 nM.

AAEAAAATAKAAA gave an IC50 ([3]; DRB1 *0101) of 2500 nM.

KQPFRPQQPYPQ gave an IC50 ([6]; DRB4 *0101) of 56 nM.

TWQLNGEELIQDM gave an IC50 ([3]; read-out: DRB1 *0101) of at least 50000 nM.

In the case of IRNLALQTLPAMCNVY, the IC50 ([6]; DRB4 *0101) is reported as 1.9 nM.

QFLGQQQPFPPQ gave an IC50 ([6]; DRB4 *0101) of 2.8 nM.

AADDDDDDDDDDA gave an IC50 ([3]; DRB1 *0101) of at least 50000 nM.
